Here are results for 38 compounds from patent US11318157B2, “6-6 bicyclic aromatic ring substituted nucleoside analogues for use as PRMT5 inhibitors” (Janssen Pharmaceutica NV, priority 2015, dated 2022).

The target of experiment [1] is T1, PRMT5-MEP50 enzyme (Homo sapiens, UniProt O14744).
T1 construct: One virus expresses full length human PRMT5 with Flag-tag at N-terminus; Flag (N); purchased Charles River (Argenta); host or cells: insect cells (Sf9), baculovirus co-infection
The experiment is described as follows: In vitro assay 1a: high throughput mass spectrometer assay of SAH formation, 10 nM enzyme, 60 min. The format is biochemical. The following applies: averaged values, PRMT5-MEP50, 10 nM enzyme, read-out: pIC50 Assay 1a (converted). In outline:
(§1)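 SAH product measured by RapidFire mass spectrometry after formic acid stop; IC50 from 11-point 1:2 dilutions, four-parameter fit. Reactions at 30 °C in 20 mM Tris pH 8.5 with 1 μM SAM, 0.3 μM H2A: assay 1a 10 nM PRMT5-MEP50, 60 min; assay 1b 1.25 nM, 120 min.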

Experiment [2] addresses T1, PRMT5-MEP50 enzyme. The experiment is described as follows: In vitro assay 1b: high throughput mass spectrometer assay of SAH formation, 1.25 nM enzyme, 120 min. Type of experiment: biochemical. The following applies: averaged values; PRMT5-MEP50, 1.25 nM enzyme, 120 min; read-out: pIC50 Assay 1b (converted). In outline:
as §1

Experiment [3] deals with nuclear symmetric Arginine dimethylation in A549 cells. Put plainly: PD assay (assay 2): inhibition of nuclear symmetric Arginine dimethylation (SYM10 immunohistochemistry), 48 h. The format is cell-based. To be noted: Homo sapiens. In outline:
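Cells seeded at 400/well overnight, then treated 48 h at 37 °C, final DMSO 0.2%. Fixed and stained with SYM10 antibody plus Alexa 488 secondary, Hoechst and CellMask, then imaged on Opera. Normalized to DMSO (high) and 10 μM reference compound (low); averaged pIC50 reported.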

[4] abbreviates: A549, read-out: pIC50 Assay 2 (converted).
The mark [5] stands for this setting: A549, averaged values, PD assay, A549 cells, symmetric Arginine dimethylation, read-out: pIC50 Assay 2 (converted).

SMILES strings stand for the structures. Read-outs that look alike come from different tables or passages of the source.

T1 sequence (O14744 whole entry): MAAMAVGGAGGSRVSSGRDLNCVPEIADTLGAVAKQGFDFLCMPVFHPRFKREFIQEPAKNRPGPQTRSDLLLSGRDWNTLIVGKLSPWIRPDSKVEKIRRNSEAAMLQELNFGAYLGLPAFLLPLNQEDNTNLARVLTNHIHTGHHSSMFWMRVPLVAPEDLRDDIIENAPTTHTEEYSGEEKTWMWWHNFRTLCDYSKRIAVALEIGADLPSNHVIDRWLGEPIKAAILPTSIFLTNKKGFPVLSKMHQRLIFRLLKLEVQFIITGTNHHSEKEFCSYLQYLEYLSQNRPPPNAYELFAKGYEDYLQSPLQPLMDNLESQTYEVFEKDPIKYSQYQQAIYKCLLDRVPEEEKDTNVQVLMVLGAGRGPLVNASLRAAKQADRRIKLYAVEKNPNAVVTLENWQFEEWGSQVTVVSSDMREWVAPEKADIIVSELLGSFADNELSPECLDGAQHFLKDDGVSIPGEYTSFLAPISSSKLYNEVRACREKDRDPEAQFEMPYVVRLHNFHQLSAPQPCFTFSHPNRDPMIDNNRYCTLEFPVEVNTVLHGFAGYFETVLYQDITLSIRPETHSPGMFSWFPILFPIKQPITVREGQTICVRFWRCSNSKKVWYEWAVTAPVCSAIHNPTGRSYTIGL
T1 sequence (Q9BQA1 whole entry partner): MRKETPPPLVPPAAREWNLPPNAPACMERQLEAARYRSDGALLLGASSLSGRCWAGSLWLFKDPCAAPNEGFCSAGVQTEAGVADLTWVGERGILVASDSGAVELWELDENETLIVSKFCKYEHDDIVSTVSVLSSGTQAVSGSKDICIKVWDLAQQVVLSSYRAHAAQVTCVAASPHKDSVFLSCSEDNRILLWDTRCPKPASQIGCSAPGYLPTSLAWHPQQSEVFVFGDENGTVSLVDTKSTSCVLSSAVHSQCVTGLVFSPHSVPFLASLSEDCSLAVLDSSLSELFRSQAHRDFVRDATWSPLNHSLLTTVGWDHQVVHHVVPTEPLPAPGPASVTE

As for `CNc1ccc2ccc(CC[C@H]3C[C@@H](n4ccc5c(N)ncnc54)[C@H](O)[C@@H]3O)cc2n1` [Compound 126], the results for the IC50 (on PRMT5-MEP50 enzyme [1]; at PRMT5-MEP50 enzyme [2]; in experiment [3] (setting [4])) were 0.501 nM, 2.51 nM and 0.316 nM, respectively.
As to `O[C@@H]1[C@H](O)[C@@H](CCc2ccc3ccc(NCc4ccc(Cl)cc4)nc3c2)O[C@H]1n1ccc2c(Cl)ncnc21` [Compound 127], the IC50 at PRMT5-MEP50 enzyme [1] was 12.6 nM; on PRMT5-MEP50 enzyme [2], 100 nM; in experiment [3] (setting [5]) it was 126 nM.
For `CNc1ccc2ccc(CC[C@H]3O[C@@H](n4ccc5c(Cl)ncnc54)[C@H](O)[C@@H]3O)cc2n1` [Compound 128] the same measures were 7.94 nM, 63.1 nM and 200 nM.
Consider `Nc1ncnc2c1ccn2[C@@H]1C[C@H](CCc2ccc3cc(Br)cnc3c2)[C@@H](O)[C@H]1O` [Compound 129], for which the IC50 on PRMT5-MEP50 enzyme [1] was 2.51 nM; on PRMT5-MEP50 enzyme [2], 15.8 nM; in experiment [3] (setting [4]), 12.6 nM.
As to `Nc1ccc2ccc(OC[C@H]3O[C@@H](n4ccc5c(Cl)ncnc54)[C@H](O)[C@@H]3O)cc2n1` [Compound 130], the IC50 on PRMT5-MEP50 enzyme [1] is 0.631 nM; on PRMT5-MEP50 enzyme [2], 7.94 nM; in experiment [3] (setting [5]), 12.6 nM.
The matching figures for `O[C@@H]1[C@H](O)[C@@H](COc2ccc3ccc(NCc4ccc(Cl)cc4)nc3c2)O[C@H]1n1ccc2c(Cl)ncnc21` [Compound 131]: 7.94 nM, 63.1 nM and about 66.1 nM.
For `Nc1ncnc2c1ccn2[C@@H]1O[C@H](COc2ccc3ccc(NCc4ccc(Cl)cc4)nc3c2)[C@@H](O)[C@H]1O` [Compound 132] the same measures were 0.794 nM, 2.51 nM and 2.51 nM.
For `Nc1ccc2ccc(CC[C@H]3O[C@@H](n4ccc5c(Cl)ncnc54)[C@H](O)[C@@H]3O)cc2n1` [Compound 133] the same measures were 0.631 nM, 6.31 nM and 6.31 nM.
`Nc1ncnc2c1ccn2[C@@H]1O[C@H](CCc2ccc3ccc(NCc4ccc(Cl)cc4)nc3c2)[C@@H](O)[C@H]1O` [Compound 135]: the IC50 at PRMT5-MEP50 enzyme [1] is 1 nM; at PRMT5-MEP50 enzyme [2], 6.31 nM; in experiment [3] (setting [5]) it was about 2.82 nM.
For `CNc1ccc2ccc(OC[C@H]3O[C@@H](n4ccc5c(Cl)ncnc54)[C@H](O)[C@@H]3O)cc2n1` [Compound 136] the same measures were 7.94 nM, 50.1 nM and 501 nM.
The matching figures for `CNc1ccc2ccc(CC[C@H]3O[C@@H](n4ccc5c(N)ncnc54)[C@H](O)[C@@H]3O)cc2n1` [Compound 137]: 1.58 nM, 20 nM and 6.31 nM.
The matching figures for `O[C@@H]1[C@H](O)[C@@H](CCc2ccc3ccc(NCC4CC4)nc3c2)O[C@H]1n1ccc2c(Cl)ncnc21` [Compound 138]: 7.94 nM, 79.4 nM and 126 nM.
As to `Nc1ncnc2c1ccn2[C@@H]1O[C@H](CCc2ccc3ccc(NCC4CC4)nc3c2)[C@@H](O)[C@H]1O` [Compound 139], the IC50 was 1.26 nM at PRMT5-MEP50 enzyme [1], 10 nM at PRMT5-MEP50 enzyme [2] and 6.31 nM in experiment [3] (setting [5]).
The matching figures for `O[C@@H]1[C@H](O)[C@@H](COc2ccc3ccc(NCC4CC4)nc3c2)O[C@H]1n1ccc2c(Cl)ncnc21` [Compound 140]: 6.31 nM, 50.1 nM and 794 nM.
The matching figures for `Nc1ncnc2c1ccn2[C@@H]1C[C@H](CCc2ccc3cnc(NCC4CC4)nc3c2)[C@@H](O)[C@H]1O` [Compound 141]: 7.94 nM, 50.1 nM and 63.1 nM.
The matching figures for `Nc1ncnc2c1ccn2[C@@H]1O[C@H](COc2ccc3ccc(NCC4CC4)nc3c2)[C@@H](O)[C@H]1O` [Compound 142]: 1.26 nM, 7.94 nM and 15.8 nM.
For `Nc1cnc2ccc(CC[C@H]3C[C@@H](n4ccc5c(Cl)ncnc54)[C@H](O)[C@@H]3O)cc2n1` [Compound 143], the IC50 at PRMT5-MEP50 enzyme [1] is 10 nM; on PRMT5-MEP50 enzyme [2], 50.1 nM; in experiment [3] (setting [5]), 2510 nM.
The matching figures for `Nc1ncnc2c1ccn2[C@@H]1C[C@H](CCc2ccc3cnc(NC4CC4)nc3c2)[C@@H](O)[C@H]1O` [Compound 145]: 15.8 nM, 79.4 nM and 79.4 nM.
Consider `Nc1ncnc2c1ccn2[C@@H]1C[C@H](CCc2ccc3ccc(NC4CCCC4)nc3c2)[C@@H](O)[C@H]1O` [Compound 146], for which the IC50 on PRMT5-MEP50 enzyme [1] was 0.251 nM; at PRMT5-MEP50 enzyme [2] it was 2.51 nM; in experiment [3] (setting [5]), under 1.17 nM.
The matching figures for `Nc1ncnc2c1ccn2[C@@H]1C[C@H](CCc2ccc3cc(Cl)c(NCC4CC4)nc3c2)[C@@H](O)[C@H]1O` [Compound 147]: 251 nM, 251 nM and 31.6 nM.
The matching figures for `Nc1ncnc2c1ccn2[C@@H]1C[C@H](CCc2ccc3cc(Br)c(NCC4CC4)nc3c2)[C@@H](O)[C@H]1O` [Compound 148]: 398 nM, 794 nM and 200 nM.
Turning to `CC(C)Nc1ccc2ccc(CC[C@H]3C[C@@H](n4ccc5c(N)ncnc54)[C@H](O)[C@@H]3O)cc2n1` [Compound 149], the IC50 at PRMT5-MEP50 enzyme [1] is 0.316 nM; at PRMT5-MEP50 enzyme [2], 5.01 nM; in experiment [3] (setting [4]) it was 1 nM.
For `CC(C)(C)Nc1ccc2ccc(CC[C@H]3C[C@@H](n4ccc5c(N)ncnc54)[C@H](O)[C@@H]3O)cc2n1` [Compound 150], the IC50 is 1 nM at PRMT5-MEP50 enzyme [1], 15.8 nM at PRMT5-MEP50 enzyme [2] and 31.6 nM in experiment [3] (setting [5]).
For `Nc1ncnc2c1ccn2[C@@H]1C[C@H](CCc2ccc3ccc(NCC(F)(F)F)nc3c2)[C@@H](O)[C@H]1O` [Compound 151] the same measures were 0.794 nM, 15.8 nM and 5.01 nM.
The matching figures for `Nc1ncnc2c1ccn2[C@@H]1C[C@H](CCc2ccc3ccc(NC4CC4)nc3c2)[C@@H](O)[C@H]1O` [Compound 152]: 0.501 nM, 3.98 nM and under 1.17 nM.
`Nc1ccc2ccc(OC[C@H]3O[C@@H](n4ccc5cncnc54)[C@H](O)[C@@H]3O)cc2n1` [Compound 163]: the figures for the IC50 (on PRMT5-MEP50 enzyme [1]; on PRMT5-MEP50 enzyme [2]; in experiment [3] (setting [5])) were 0.501 nM, 5.01 nM and 6.31 nM, respectively.
For `CNc1ccc2ccc(CC[C@H]3C[C@@H](n4ccc5cncnc54)[C@H](O)[C@@H]3O)cc2n1` [Compound 164] the same measures were 0.398 nM, 10 nM and under 1.17 nM.
For `O[C@@H]1[C@H](O)[C@@H](CCc2ccc3ccc(NCc4ccc(Cl)cc4)nc3c2)O[C@H]1n1ccc2cncnc21` [Compound 165] the same measures were 3.98 nM, 31.6 nM and 20 nM.
For `O[C@@H]1[C@@H](CCc2ccc3ccc(NCC4CC4)nc3c2)C[C@@H](n2ccc3cncnc32)[C@@H]1O` [Compound 166] the same measures were 1 nM, 5.01 nM and 1 nM.
`Nc1ccc2ccc(CC[C@H]3O[C@@H](n4ccc5cncnc54)[C@H](O)[C@@H]3O)cc2n1` [Compound 167]: the values for the IC50 (at PRMT5-MEP50 enzyme [1]; at PRMT5-MEP50 enzyme [2]; in experiment [3] (setting [5])) were 0.794 nM, 5.01 nM and 3.16 nM, respectively.
For `O[C@@H]1[C@H](O)[C@@H](CCc2ccc3ccc(NCC4CC4)nc3c2)O[C@H]1n1ccc2cncnc21` [Compound 168], the values for the IC50 (at PRMT5-MEP50 enzyme [1]; on PRMT5-MEP50 enzyme [2]; in experiment [3] (setting [5])) were 3.98 nM, 50.1 nM and 126 nM, respectively.
For `CNc1ccc2ccc(CC[C@H]3O[C@@H](n4ccc5cncnc54)[C@H](O)[C@@H]3O)cc2n1` [Compound 169] the same measures were 10 nM, 63.1 nM and 50.1 nM.
For `O[C@@H]1[C@H](O)[C@@H](COc2ccc3ccc(NCC4CC4)nc3c2)O[C@H]1n1ccc2cncnc21` [Compound 170] the same measures were 6.31 nM, 63.1 nM and 79.4 nM.
The matching figures for `O[C@@H]1[C@@H](CCc2ccc3ccc(NCc4ccc(Cl)cc4)nc3c2)C[C@@H](n2ccc3cncnc32)[C@@H]1O` [Compound 171]: 0.794 nM, 6.31 nM and 3.16 nM.
Turning to `O[C@@H]1[C@@H](CCc2ccc3ccc(NCc4ccccc4)nc3c2)C[C@@H](n2ccc3cncnc32)[C@@H]1O` [Compound 172], the IC50 at PRMT5-MEP50 enzyme [1] was 0.501 nM; on PRMT5-MEP50 enzyme [2], 3.98 nM; in experiment [3] (setting [5]), under 1.17 nM.
For `O[C@@H]1[C@H](O)[C@@H](COc2ccc3ccc(NCc4ccc(Cl)cc4)nc3c2)O[C@H]1n1ccc2cncnc21` [Compound 173] the same measures were 2 nM, 15.8 nM and 39.8 nM.
The matching figures for `CNc1ccc2ccc(OC[C@H]3O[C@@H](n4ccc5cncnc54)[C@H](O)[C@@H]3O)cc2n1` [Compound 174]: 10 nM, 50.1 nM and 126 nM.
For `COCc1ccc2ccc(OC[C@H]3O[C@@H](n4ccc5c(N)ncnc54)[C@H](O)[C@@H]3O)cc2n1` [Compound 175] the same measures were over 10000 nM, 3160 nM and over 10000 nM.
